{
  "source": "patent US6358941B1",
  "about": "“Treatment of arthritis disorders, rheumatoid arthritis and manifestations associated with rheumatoid disorders” (priority 1996, dated 2002)",
  "key": {"[1]": {"system": "haemolysate cholinesterase (erythrocyte acetylcholinesterase)", "assay": "Cholinesterase activity in haemolysed whole blood (Sigma Diagnostics Cholinesterase (PTC) kit)", "format": "biochemical, human", "conditions": "0 to 2.5 μg/ml added in vitro", "method": "(§1) SIGMA DIAGNOSTICS® CHOLINESTERASE (PTC) kit, available from Sigma Diagnostics, can be used for determining the activity and selectivity of cholinesterase inhibitors.\n(§2) Reactions involved in the cholinesterase assay are as follows:\n(§3) Propionylthiocholine+H2O→Propionic Acid+Thiocholine\n(§4) Thiocholine+5, 5′-Dithiobis-2-Nitrobenzoic Acid→5-Thio-2-Nitrobenzoic Acid\n(§5) 5-Thio-2-Nitrobenzoic Acid is assessed by measuring the absorbance at 405 nm. The rate of change in absorbance at 405 nm is directly proporational to cholinesterase activity.\n(§6) The activity of erythrocyte cholinesterase may be calculated on the basis of the measurement of butyrylcholinesterase (pseudocholinesterase) in serum and cholinesterase in haemolyzed whole blood (haemolysate), both measured simultaneously by the method described above, and evaluated according to the haematocrit value according to the formula\nHChE=(EChE×Hctg*)+(PChE×(1-Hct*))\nIn the above formulae, EChE is erythrocyte cholinesterase activity, PChE is plasma cholinesterase activity, HChE is haemolysate cholinesterase activity, and Hct is haematocrit value of the sample.\nAnother way of assessing the cholinesterase activity is to measure the plasma cholinesterase and the cholinesterase in purified haemolyzed erythrocytes. By doing this, the values are obtained directly.\nBlood samples from 3 patients were tested with the Sigma test. […]"}, "[2]": {"molecular_target": "T1, butyrylcholinesterase (pseudocholinesterase) in serum (Homo sapiens, UniProt P06276)", "T1 construct": "butyrylcholinesterase (pseudocholinesterase) in serum; from tissue; host or cells: serum of patients", "T1 sequence (P06276 29-602)": "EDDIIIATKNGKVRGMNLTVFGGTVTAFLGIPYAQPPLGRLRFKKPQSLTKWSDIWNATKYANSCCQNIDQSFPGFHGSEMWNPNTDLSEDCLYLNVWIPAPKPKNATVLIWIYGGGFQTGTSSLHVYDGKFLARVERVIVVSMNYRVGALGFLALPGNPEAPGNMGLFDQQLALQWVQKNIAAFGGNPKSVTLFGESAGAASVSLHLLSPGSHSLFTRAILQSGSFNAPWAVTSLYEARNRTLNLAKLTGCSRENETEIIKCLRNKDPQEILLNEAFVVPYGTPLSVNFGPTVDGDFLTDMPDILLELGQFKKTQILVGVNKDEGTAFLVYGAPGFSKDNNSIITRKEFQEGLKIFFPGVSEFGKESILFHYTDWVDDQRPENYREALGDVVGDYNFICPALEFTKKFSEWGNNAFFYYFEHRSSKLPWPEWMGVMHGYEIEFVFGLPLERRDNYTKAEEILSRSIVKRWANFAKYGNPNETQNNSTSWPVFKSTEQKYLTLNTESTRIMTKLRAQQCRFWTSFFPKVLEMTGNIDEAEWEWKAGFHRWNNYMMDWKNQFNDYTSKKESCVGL", "assay": "Cholinesterase activity in serum (Sigma Diagnostics Cholinesterase (PTC) kit)", "format": "biochemical", "conditions": "0 to 2.5 μg/ml added in vitro", "method": "as §1, §2, §3, §4, §5, §6\nBlood samples from 3 patients were tested with the Sigma test. […] The results are shown below in table 1.1."}, "[3]": {"system": "patients with osteoarthritis", "assay": "Treatment of patients with osteoarthritis (Example 5)", "format": "in vivo, human"}, "[4]": {"conditions": "in vivo; cited from earlier work"}, "[5]": {"system": "patient with Rheumatoid Arthritis and anaemia", "assay": "Treatment of a patient with anaemia of chronic disorder (Example 6)", "format": "in vivo, human", "method": "The patient was treated in the period between Jan. 3, 1997 and Jan. 20, 1997."}, "[6]": {"system": "patients suffering from different arthritic disorders of rheumatoid origin", "assay": "Treatment of patients with rheumatoid diseases (Example 7)", "format": "in vivo, human", "source_text": "Stiffness: Joint stiffness is a complaint covering sensations which range from slight resistance to all movements through the normal range, to blocking of certain movements due to fixed anatomical changes. Certain types of stiffness are highly characteristic, such as early morning stiffness.\nEarly morning stiffness occurs primarily in rheumatoid arthritis, but also in other arthritic diseases. The patient awakes with distressing, painful stiffness of all affected joints. This is gradually “worked off ” by activity over one half to three hours or more. This “limbering up time” provides a reliable measure of inflammatory activity. In osteoarthritis stiffness tends to come on later in the day and is preceded by activity.\nIn one of the examples given of rheumatoid patients on galantamine, the parameters evaluated were tiredness, sleep, pain, and stiffness. […] All these parameters were evaluated with a questionaire and VAS (Visual Analogue Scale) which refer to the patients' reporting as regards the severity of the symptoms, represented by a 0-100 percentage line."}, "[7]": {"conditions": "room temperature; galantamine and its acid addition salts; cited from earlier work"}, "[8]": {"conditions": "humans; cited from earlier work"}},
  "note": "Where a name gives a salt, the structure may show the parent alone.",
  "data": [
    {"smiles": "COc1ccc2c3c1O[C@H]1C[C@@H](O)C=C[C@@]31CCN(C)C2", "note": "[galantamine hydrobromide]", "values": [
      {"measurement": "Change of haemolysate cholinesterase activity with increased concentration", "setting": "[1]", "result": "significant reduction"},
      {"measurement": "Change of serum cholinesterase activity as response to addition", "setting": "[2]", "result": "do not show any statistically significant changes"},
      {"measurement": "joint pain symptoms, second patient", "setting": "[3]; 10 mg per day (2 x 5 mg tablets), after three days, osteoarthritis not diagnosed", "result": "improvement in symptoms"},
      {"measurement": "osteoarthritis symptoms, first volunteer", "setting": "[3]; 10 mg per day orally (2 x 5 mg), after seven days, maintained over 31 days, dose raised to 30 mg per day", "result": "improvement in osteoarthritis symptoms"},
      {"measurement": "symptoms when medication was discontinued, first volunteer", "setting": "[3]; after 31 day period", "result": "Symptoms were reported to recur"},
      {"measurement": "elimination half life", "setting": "[4]", "result": "over four"},
      {"measurement": "laboratory blood tests reflecting anaemia", "setting": "[5]; 15 mg per day (3 x 5 mg orally), after 14 days", "result": "significant improvement"}
    ]},
    {"smiles": "COc1ccc2c3c1O[C@H]1C[C@@H](O)C=C[C@@]31CCN(C)C2", "note": "[galantamine]", "values": [
      {"measurement": "patients reporting a significant improvement in their symptoms", "setting": "[6]; 13 patients, patient numbers 1, 2, 3, 5, 9, 10 and 12", "result": 50, "unit": "%"},
      {"measurement": "augmentation of grip strength", "setting": "[6]; one RA patient (patient number 1)", "result": "over 50%"},
      {"measurement": "solubility in water", "setting": "[7]", "result": "only sparingly soluble"},
      {"measurement": "Haematocrit", "setting": "[5]; 20-1-97, after treatment with 15 mg per day orally, normal 0.360-0.470, 0.342 on 3-1-97", "result": 0.362, "unit": "L/L"},
      {"measurement": "White cells", "setting": "[5]; 20-1-97, after treatment with 15 mg per day orally, normal 3.8-10.2, 6.6 on 3-1-97", "result": "5.9e+09", "unit": "L⁻¹"},
      {"measurement": "Red cells", "setting": "[5]; 20-1-97, after treatment with 15 mg per day orally, normal 4.00-5.8, 3.72 on 3-1-97", "result": "3.94e+12", "unit": "L⁻¹"},
      {"measurement": "Haemoglobin", "setting": "[5]; 20-1-97, after treatment with 15 mg per day orally, normal 118-158, 115 on 3-1-97", "result": 124, "unit": "g/L"},
      {"measurement": "passing the blood-brain barrier", "setting": "[8]", "result": "capable of passing the blood-brain barrier"}
    ]}
  ]
}
